Here are results for 6 compounds from patent publication US20050048490A1, “Proteins associated with cell growth, differentiation, and death” (incyte corp., priority 2002, published 2005).

The test system of one assay is SEQ ID NO:96. The assay is described as follows: Microarray expression analysis, steroid-treated versus untreated C3A cells. The class given is cell-based, human. As to conditions: early confluent C3A cells treated at 1, 10, and 100 μM for 1, 3, and 6 hours. As for the experimental part:
(§1) Total RNA is isolated from tissue samples using the guanidinium thiocyanate method and poly(A)^+ RNA is purified using the oligo-(dT) cellulose method. Each poly(A)^+ RNA sample is reverse transcribed using MMLV reverse-transcriptase, 0.05 pg/μl oligo-(dT) primer (21mer), 1× first strand buffer, 0.03 units/μl RNase inhibitor, 500 μM dATP, 500 μM dGTP, 500 μM dTTP, 40 μM dCTP, 40 μM dCTP-Cy3 (BDS) or dCTP-Cy5 (Amersham Biosciences). The reverse transcription reaction is performed in a […] containing 200 ng poly(A)^+ RNA with GEMBRIGHT kits (Incyte Genomics). Specific control poly(A)^+ RNAs are synthesized by in vitro transcription from non-coding yeast genomic DNA. […]
(§2) Sequences of the present invention are used to generate array elements. […] Array elements are amplified in thirty cycles of PCR from an initial quantity of 1-2 ng to a final quantity greater than 5 μg. […]
(§3) Reporter-labeled hybridization complexes are detected with a microscope equipped with an Innova 70 mixed gas 10 W laser (Coherent, Inc., Santa Clara Calif.) capable of generating spectral lines at 488 nm for excitation of Cy3 and at 632 nm for excitation of Cy5. […]
(§4) A grid is superimposed over the fluorescence signal image such that the signal from each spot is centered in each element of the grid. […]

Another assay deals with SEQ ID NO:94. The assay can be described thus: Microarray expression analysis, activated versus untreated Jurkat cells. It is filed as cell-based, human. As to conditions: Jurkat cells treated with combinations of graded doses of PMA (5 nM-1 μM) and ionomycin (50 ng/ml-10μ/ml), 1 hour time point. The procedure:
as §1, §2, §3, §4

The subject of the next assay is SEQ ID NO:101. The assay can be described thus: Microarray expression analysis, TNF-α treated versus untreated HUVECs. It is filed as cell-based, human. As to conditions: HUVECs at 85% confluence treated for 0.33, 0.66, 1, 4, 8, 24, 48, and 72 hours, versus untreated HUVECs (0 hour). As for the experimental part: as §1, §2, §3, §4
Another assay has as its system SEQ ID NO:102. The assay is described as above. The class given is cell-based, human. As to conditions: HUVECs at 85% confluence treated for 0.33, 0.66, 1, 4, 8, 24, 48, and 72 hours, versus untreated HUVECs (0 hour). The procedure:
as §1, §2, §3, §4

In the next assay the test system is SEQ ID NO:104. The assay is described as follows: Microarray expression analysis, preadipocytes exposed to differentiation factors versus untreated. It is filed as cell-based. As to conditions: human preadipocytes treated with human insulin and PPAR-γ agonist for 3 days, then insulin. The procedure:
as §1, §2, §3, §4

As for “6-methyl-17-hydroxyprogesterone [medroxyprogesterone]”, the “expression of SEQ ID NO:96” value in the assay on SEQ ID NO:96 is “decreased expression”.

On to `CCCCCCCCCCCCCC(=O)O[C@@H]1[C@@H](C)[C@@]2(O)[C@@H](C=C(CO)C[C@]3(O)C(=O)C(C)=C[C@@H]23)[C@@H]2C(C)(C)[C@]12OC(C)=O` [PMA, Phorbol myristate acetate], for which the “expression of SEQ ID NO:94” value with SEQ ID NO:94 is recorded as “decreased expression”.

As for `C[C@H]1C[C@H]2[C@@H]3CCC4=CC(=O)C=C[C@]4(C)[C@@]3(Cl)[C@@H](O)C[C@]2(C)[C@@]1(O)C(=O)CO` [beclomethasone, Beclomethasone], the “expression of SEQ ID NO:96” value in the assay on SEQ ID NO:96 is given as “decreased expression”. On to `C[C@H](CCC(=O)O)C[C@H](C)C[C@H](C)C(=O)/C=C(\O)[C@H](C)C[C@H](C)C/C=C/[C@@H](C)[C@@H](O)[C@@H](C)[C@@H](O)C[C@@H]1CC[C@@](C)([C@H]2CC[C@@](C)([C@@H](C)O)O2)O1` [ionomycin, Ionomycin], for which the “expression of SEQ ID NO:94” value in the assay on SEQ ID NO:94 is reported as “decreased expression”.

Turning to TNF-α, the “expression of SEQ ID NO:101” value with SEQ ID NO:101 is on record as “decreased expression”. Further, in the assay on SEQ ID NO:102, the “expression of SEQ ID NO:102” value is listed as “decreased expression”. For the compound “human insulin: differentiation factor used on human preadipocytes”, the “expression of SEQ ID NO:104” value in the assay on SEQ ID NO:104 was “decreased expression”.
